Results from patent EP1061945B1, “USE OF VIP ANALOGUES FOR PREVENTING AND TREATING BRAIN DAMAGE IN HUMAN BABIES” (ASSISTANCE PUBLIQUE - HOPITAUX DE PARIS, priority 1998, dated 2002).
“Also recorded” adds a separate entry of the source. Bridge positions count the residues as written; N and C are the ends. Square brackets hold non-standard residues; d marks the D form. Peptide text beside a SMILES is read from it. Nle = CCCC[C@H](N)C(=O)O

Test system: lésions excitotoxiques induites par l'iboténate dans le cerveau de souris en développement
Assay: Ibotenate-induced excitotoxic brain lesions in newborn mice (intracerebral ibotenate at JN or JN+5)
Assay type: in vivo
Source text: Le modèle chez la souris obtenu par injection intracérébrale d'iboténate reproduit : • des lésions du cortex cérébral, semblables à celles observées chez le foetus humain entre 16 et 25 semaines de grossesse, lorsque l'iboténate est injecté le jour de la naissance (JN), • des lésions du cortex cérébral semblables aux lésions du nouveau-né humain à terme, lorsque l'injection d'iboténate est effectuée à JN + 5 et • des lésions de la substance blanche, semblables aux lésions du prématuré humain, lorsque l'iboténate est injecté à JN + 5.
Dans l'ensemble de ces figures : * = p<0,05, ** = p<0,01 (ANOVA + test de comparaison multiple de Dunnett par rapport aux contrôles (iboténate seul)).
Les souris sont préparées comme décrit dans J Clin. Investig. précité.
Le VIP est injecté par voie intracérébrale à raison de 1 µg (dose par animal) et les VIP cycliques ont été injectés par voie intrapéritonéale à raison de 10 µg (dose par animal).

[1] = ibotenate at JN+5, peptide by intracerebral route
[2] = ibotenate at JN+5, peptide by intraperitoneal route

Question: For `CCCC[C@H](NC(=O)[C@H](CCC(N)=O)NC(=O)[C@H](CCCCN)NC(=O)[C@H](CCCNC(=N)N)NC(=O)[C@H](CC(C)C)NC(=O)[C@H](CCCCN)NC(=O)[C@@H](NC(=O)[C@H](Cc1ccc(O)cc1)NC(=O)[C@H](CC(N)=O)NC(=O)[C@H](CCC(=O)O)NC(=O)[C@@H](NC(=O)[C@H](Cc1ccccc1)NC(=O)[C@@H](NC(=O)[C@H](C)NC(=O)[C@H](CC(=O)O)NC(=O)[C@H](CO)NC(=O)[C@H](Cc1c[nH]cn1)NC(C)=O)C(C)C)[C@@H](C)O)[C@@H](C)O)C(=O)N[C@@H](C)C(=O)N[C@@H](C)C(=O)N[C@@H](CCCCN)C(=O)N[C@H]1CCCCNC(=O)C[C@@H](C(=O)N[C@@H](CC(C)C)C(=O)N[C@@H](CCCCN)C(=O)N[C@@H](CCCCN)C(=O)NCC(=O)NCC(=O)N[C@H](C(N)=O)[C@@H](C)O)NC(=O)[C@H](CC(N)=O)NC(=O)[C@H](CC(C)C)NC(=O)[C@H](Cc2ccc(O)cc2)NC1=O` [SEQ ID NO:2] (Ac-HSDAVFTENYTKLRKQ[Nle]AAKKYLNDLKKGGT-NH2; lactam 21-25), which “delay of administration after the ibotenate injection within which the effects at JN+5 are observed” value (JN+5, peptide given after ibotenate) is on record?
Answer: The value was 8 à 12 heures.

Question: What about the “taille des lésions corticales” value [1] of the same compound?
Answer: Its value is “n'est significative que lorsque l'analogue cyclique du VIP de SEQ ID NO:2 est administré par voie parentérale; also recorded: une certaine protection du cortex cérébral”.

Question: What about the “taille des lésions de substance blanche” value [1] of the same compound?
Answer: The value was “diminution de la taille des lésions de substance blanche significative; also recorded: protège significativement la substance blanche”.

Question: What about the “taille des lésions corticales” value (ibotenate at JN+5, peptide by intraperitoneal (parenteral) route) of the same compound?
Answer: Its value is “significative; also recorded: une certaine protection du cortex cérébral, surtout en intrapéritonéale”.

Question: What about the “taille des lésions de substance blanche” value [2] of the same compound?
Answer: The value was “diminution de la taille des lésions de substance blanche significative; also recorded: activité significative; also recorded: protège significativement la substance blanche”.

Question: For `CCCC[C@H](NC(=O)[C@H](CCCNC(=N)N)NC(=O)[C@H](CCCCN)NC(=O)[C@H](CCCNC(=N)N)NC(=O)[C@H](CC(C)C)NC(=O)[C@H](CCCCN)NC(=O)[C@@H](NC(=O)[C@H](Cc1ccc(O)cc1)NC(=O)[C@H](CC(N)=O)NC(=O)[C@H](CCC(=O)O)NC(=O)[C@@H](NC(=O)[C@H](Cc1ccccc1)NC(=O)[C@@H](NC(=O)[C@H](C)NC(=O)[C@H](CC(=O)O)NC(=O)[C@H](CO)NC(=O)[C@H](Cc1c[nH]cn1)NC(C)=O)C(C)C)[C@@H](C)O)[C@@H](C)O)C(=O)N[C@@H](C)C(=O)N[C@@H](C)C(=O)N[C@@H](CCCCN)C(=O)N[C@H]1CCCCNC(=O)C[C@@H](C(=O)N[C@@H](CC(C)C)C(=O)N[C@@H](CCCCN)C(=O)N[C@@H](CCCCN)C(=O)NCC(=O)NCC(=O)N[C@H](C(N)=O)[C@@H](C)O)NC(=O)[C@H](CC(N)=O)NC(=O)[C@H](CC(C)C)NC(=O)[C@H](Cc2ccc(O)cc2)NC1=O` [SEQ ID NO:3] (Ac-HSDAVFTENYTKLRKR[Nle]AAKKYLNDLKKGGT-NH2; lactam 21-25), which “taille des lésions de substance blanche” value [2] is on record?
Answer: Its value is “reproduit les effets neuroprotecteurs de l'analogue cyclique de VIP de SEQ ID NO:2”.

Question: What about the “taille des lésions corticales” value (ibotenate at JN, given at the same time, cyclic VIP intraperitoneal, 10 µg per animal) of the same compound?
Answer: Its value is “reproduit les effets neuroprotecteurs de l'analogue cyclique de VIP de SEQ ID NO:2”.
